This is an account of results in patent publication US10479752B2, “Deuterated tetramethyl dioic acids, compositions comprising them and uses thereof” (SYNDROMEX LTD., priority 2011, dated 2019).

A short description of the data set: Chemical and isotopic stability as solutions in DMSO/phosphate buffered saline over 48 hours. The settings on record: for chemical purity (HPLC area percent) with respect to related substances: all samples through the study; for analyte recovered, yield: summary over the study; for disenrichment of the product (isotopic stability): throughout the time period of the study.

Setting [1] is: DMSO/PBS solution, 37° C., 24 h.
The mark [2] stands for this setting: DMSO/PBS solution, 37° C., 48 h.
[3] abbreviates: DMSO/PBS solution, 37° C., 96 h.
Setting [4] is: Original Sample (before the stability study).

Marks after values point to notes of the source that are not given here.

On to `[2H]C([2H])(C(=O)O)C(C)(C)CCCCCCCCCCC(C)(C)C([2H])([2H])C(=O)O` [Compound 2, 3,3,14,14-Tetramethyl-1,16-[2-D2,15-D2]hexadecanediol acid], for which the “GC/MS IE (isotopic enrichment)” value by setting is: (DMSO/PBS solution, 37° C., 0 h) 97.9%; (DMSO/PBS solution, 37° C., 2 h) 98.0%; (DMSO/PBS solution, 37° C., 4 h) 98.0%; under setting [1], 98.0%; under setting [2], 98.0%; under setting [3], 98.0%. Further, the “HPLC Area Percentage” value (DMSO/PBS solution, 37° C., 0 h) came out at 94.9%; the “HPLC Area Percentage” value (DMSO/PBS solution, 37° C., 2 h) is given as 95.5%; the “HPLC Area Percentage” value (DMSO/PBS solution, 37° C., 4 h) stood at 95.4%; the “HPLC Area Percentage” value under setting [1] is given as 95.2%; the “HPLC Area Percentage” value under setting [2] is 96.0%; the “HPLC Area Percentage” value under setting [3] is given as 96.1%. Besides, the “HPLC Area Percentage” value under setting [4] is given as 97.0%. Moreover, the “HPLC Assay” value turned out to be 67.4% (DMSO/PBS solution, 37° C., 0 h); 65.1% (DMSO/PBS solution, 37° C., 2 h); 62.4% (DMSO/PBS solution, 37° C., 4 h); 86.0% under setting [1]; 76.8% under setting [3]. Also, the “chemical purity (HPLC area percent) with respect to related substances” value (DMSO/PBS solution, 37° C.) was “around 96%”. Also, for the setting “DMSO/PBS solution, 37° C.”, the “analyte recovered, yield” value is listed as “approximately 90%”.

As to `[2H]C([2H])([2H])C(CCCCCCCCCCC(CC(=O)O)(C([2H])([2H])[2H])C([2H])([2H])[2H])(CC(=O)O)C([2H])([2H])[2H]` [Compound 3, 3,3,14,14-[D12]Tetramethyl-1,16-hexadecanedoic acid], the “GC/MS IE (isotopic enrichment)” value runs as follows: (DMSO/PBS solution, 37° C., 0 h) 99.9%; (DMSO/PBS solution, 37° C., 2 h) 99.9%; (DMSO/PBS solution, 37° C., 4 h) 99.9%; under setting [1], 99.9%; under setting [2], 99.9%. The “HPLC Area Percentage” value was 98.0% (DMSO/PBS solution, 37° C., 0 h); 98.8% (DMSO/PBS solution, 37° C., 2 h); 98.4% (DMSO/PBS solution, 37° C., 4 h); 98.6% under setting [1]; 98.5% under setting [2]; 100.0% under setting [4]. Besides, the “HPLC Assay” value runs as follows: (DMSO/PBS solution, 37° C., 0 h) 33.3%; (DMSO/PBS solution, 37° C., 2 h) 38.4%; (DMSO/PBS solution, 37° C., 4 h) 32.4%; under setting [1], 46.0%; under setting [2], 50.2%. Also, the “analyte recovered, yield” value (DMSO/PBS solution, 37° C.) was “about 95%”. Besides, the “disenrichment of the product (isotopic stability)” value (“disenrichment of the product” below) (DMSO/PBS solution, 37° C.) is “No disenrichment”.

On to `[2H]C([2H])([2H])C(CCCCCCCCCCCCC(C([2H])([2H])[2H])(C([2H])([2H])[2H])C([2H])([2H])C(=O)O)(C([2H])([2H])[2H])C([2H])([2H])C(=O)O` [Compound 4, 3,3,16,16-[D16]Tetramethyl-1,18-octadecanedioic acid], for which the “GC/MS IE (isotopic enrichment)” value came to 98.6% (DMSO/PBS solution, 37° C., 0 h); 98.4% (DMSO/PBS solution, 37° C., 2 h); 98.4% (DMSO/PBS solution, 37° C., 4 h); 98.4% under setting [1]; 98.3% under setting [2]; 98.3% under setting [4]. In addition, the “HPLC Area Percentage” value runs as follows: (DMSO/PBS solution, 37° C., 0 h) 97.2%; (DMSO/PBS solution, 37° C., 2 h) 97.8%; (DMSO/PBS solution, 37° C., 4 h) 97.5%; under setting [1], 96.5%; under setting [2], 97.5%; under setting [4], 99.2%. Moreover, the “HPLC Assay” value reads like this: (DMSO/PBS solution, 37° C., 0 h) 70.9%; (DMSO/PBS solution, 37° C., 2 h) 65.9%; (DMSO/PBS solution, 37° C., 4 h) 53.8%; under setting [1], 93.8%; under setting [2], 77.6%. Moreover, where the note is “DMSO/PBS solution, 37° C., 48 h study”, the “stability results overall, in words” value is “essentially the same as those for Compound 1”.

For `[2H]C([2H])(C(=O)O)C(C)(C)CCCCCCCCCCCCC(C)(C)C([2H])([2H])C(=O)O` [Compound 5, 3,3,16,16-tetramethyl-1,18-[2-D2,17-D2]octadecanedioic acid], the “GC/MS IE (isotopic enrichment)” value stood at 96.3% (DMSO/PBS solution, 37° C., 0 h); 95.9% (DMSO/PBS solution, 37° C., 2 h); 96.0% (DMSO/PBS solution, 37° C., 4 h); 96.0% under setting [1]; 95.5% under setting [2]; 96.1% under setting [3]. For the same molecule, the “HPLC Area Percentage” value (DMSO/PBS solution, 37° C., 0 h) amounted to 98.4%; the “HPLC Area Percentage” value (DMSO/PBS solution, 37° C., 2 h) was found to be 98.0%; the “HPLC Area Percentage” value (DMSO/PBS solution, 37° C., 4 h) was 98.5%; the “HPLC Area Percentage” value under setting [1] turned out to be 98.4%; the “HPLC Area Percentage” value under setting [2] came out at 98.0%; the “HPLC Area Percentage” value under setting [3] is reported as 98.7%. The “HPLC Area Percentage” value under setting [4] was determined as 100.0%. Besides, the “HPLC Assay” value by setting is: (DMSO/PBS solution, 37° C., 0 h) 57.0%; (DMSO/PBS solution, 37° C., 2 h) 44.6%; (DMSO/PBS solution, 37° C., 4 h) 46.3%; under setting [1], 95.3%; under setting [2], 213.8%*; under setting [3], 79.8%. Further, the “analyte recovered, yield” value (DMSO/PBS solution, 37° C.) is given as “about 95%”. For the same molecule, under “DMSO/PBS solution, 37° C.”, the “disenrichment of the product” value was “No disenrichment”.

For `[2H]C([2H])([2H])C(CCCCCCCCCCCCC(CC(=O)O)(C([2H])([2H])[2H])C([2H])([2H])[2H])(CC(=O)O)C([2H])([2H])[2H]` [Compound 6, 3,3,16,16-[D12]Tetramethyl-1,18-octadecanedioic acid], the “GC/MS IE (isotopic enrichment)” value (DMSO/PBS solution, 37° C., 0 h) came out at 99.2%; the “GC/MS IE (isotopic enrichment)” value (DMSO/PBS solution, 37° C., 2 h) came out at 99.0%; the “GC/MS IE (isotopic enrichment)” value (DMSO/PBS solution, 37° C., 4 h) stood at 99.1%; the “GC/MS IE (isotopic enrichment)” value under setting [1] came to 99.0%; the “GC/MS IE (isotopic enrichment)” value under setting [2] stood at 99.1%. In addition, the “HPLC Area Percentage” value runs as follows: (DMSO/PBS solution, 37° C., 0 h) 98.4%; (DMSO/PBS solution, 37° C., 2 h) 98.6%; (DMSO/PBS solution, 37° C., 4 h) 97.9%; under setting [1], 98.5%; under setting [2], 98.7%; under setting [4], 100.0%. Also, the “HPLC Assay” value (DMSO/PBS solution, 37° C., 0 h) is recorded as 39.0%; the “HPLC Assay” value (DMSO/PBS solution, 37° C., 2 h) turned out to be 33.1%; the “HPLC Assay” value (DMSO/PBS solution, 37° C., 4 h) came to 35.6%; the “HPLC Assay” value under setting [1] was determined as 39.8%; the “HPLC Assay” value under setting [2] is reported as 59.6%. For the same molecule, where the note is “DMSO/PBS solution, 37° C.”, the “analyte recovered, yield” value is on record as “about 95%”. Further, the “disenrichment of the product” value (DMSO/PBS solution, 37° C.) is “No disenrichment”.

For `[2H]C([2H])([2H])C(CCCCCCCCCCCCCCC(C(=O)O)(C([2H])([2H])[2H])C([2H])([2H])[2H])(C(=O)O)C([2H])([2H])[2H]` [Compound 8, 2,2,17,17-Tetramethyl(D12)-octadecanedioic acid], the “GC/MS IE (isotopic enrichment)” value is, setting by setting: (DMSO/PBS solution, 37° C., 0 h) 99.9%; (DMSO/PBS solution, 37° C., 2 h) 99.9%; (DMSO/PBS solution, 37° C., 4 h) 99.9%; under setting [1], 99.9%; under setting [2], 99.9%; under setting [4], 99.9%. Further, the “HPLC Area Percentage” value runs as follows: (DMSO/PBS solution, 37° C., 0 h) 95.1%; (DMSO/PBS solution, 37° C., 2 h) 94.3%; (DMSO/PBS solution, 37° C., 4 h) 94.1%; under setting [1], 96.0%; under setting [2], 97.2%; under setting [4], 100.0%. Moreover, the “HPLC Assay” value is, setting by setting: (DMSO/PBS solution, 37° C., 0 h) 60.0%; (DMSO/PBS solution, 37° C., 2 h) 68.7%; (DMSO/PBS solution, 37° C., 4 h) 56.9%; under setting [1], 66.8%; under setting [2], 47.7%. Besides, the “chemical purity (HPLC area percent) with respect to related substances” value (DMSO/PBS solution, 37° C.) is recorded as “around 95%”. Further, under “DMSO/PBS solution, 37° C.”, the “analyte recovered, yield” value is “about 85%”. In addition, the “disenrichment of the product” value (DMSO/PBS solution, 37° C.) is reported as “No disenrichment”.
